In ChEMBL document CHEMBL1201862, “PubChem BioAssay data set” (2004):
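Dose response: 5 concentrations. Exposure: 48 h. Format: 96-well plates. Endpoint: linear interpolation; highest concentration if not reached. GI50: concentration for 50% inhibition of growth.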 The source made the active and inactive calls. Cut-off read from the data, not from the text of the source: active = GI50 up to about 1.1 µM and inactive = higher.

What was measured:
Test in all cases: growth of human tumour cells (NCI), 48 h
SF-268 = system: SF-268
A549 = system: A549
OVCAR-5 = system: OVCAR-5
SK-MEL-28 = system: SK-MEL-28
SK-OV-3 = system: SK-OV-3
M14 = system: M14
SNB-75 = system: SNB-75
IGROV-1 = system: IGROV-1
DMS-273 = system: DMS-273
M19-MEL = system: M19-MEL
UACC-62 = system: UACC-62
NCI-H226 = system: NCI-H226
OVCAR-8 = system: OVCAR-8
CAKI-1 = system: CAKI-1
KM-20L2 = system: KM-20L2
XF498 = system: XF498
UACC-257 = system: UACC-257
MOLT-4 = system: MOLT-4
ACHN = system: ACHN
NCI-H460 = system: NCI-H460
OVCAR-4 = system: OVCAR-4
UO-31 = system: UO-31
LOX IMVI = system: LOX IMVI
SNB-19 = system: SNB-19
DLD-1 = system: DLD-1
SF-539 = system: SF-539
RXF 631 = system: RXF 631
HCC 2998 = system: HCC 2998
NCI-H522 = system: NCI-H522
SK-MEL-2 = system: SK-MEL-2
SR = system: SR
HT-29 = system: HT-29
SW-620 = system: SW-620
KM12 = system: KM12
RPMI-8226 = system: RPMI-8226
786-0 = system: 786-0
DMS-114 = system: DMS-114
HCT-116 = system: HCT-116
HCT-15 = system: HCT-15
SK-MEL-5 = system: SK-MEL-5
EKVX = system: EKVX
Malme-3M = system: Malme-3M
SN12C = system: SN12C
U-251 = system: U-251
OVCAR-3 = system: OVCAR-3
SF-295 = system: SF-295
A498 = system: A498
HOP-62 = system: HOP-62
LXFL 529 = system: LXFL 529
K562 = system: K562
CCRF-CEM = system: CCRF-CEM
NCI-H23 = system: NCI-H23
COLO 205 = system: COLO 205
TK-10 = system: TK-10
HOP-92 = system: HOP-92
HL-60 = system: HL-60
SNB-78 = system: SNB-78
HOP-18 = system: HOP-18

## CCOC(=O)C1=C(C)N(NC(N)=O)C2(N)N(NC(N)=O)C(C)=C(C(=O)OCC)C12C#N (centres undefined)
SF-268
  GI50: > 100 µM (inactive)
A549
  GI50: > 100 µM (inactive)
OVCAR-5
  GI50: > 100 µM (inactive)
SK-MEL-28
  GI50: > 100 µM (inactive)
SK-OV-3
  GI50: > 100 µM (inactive)
M14
  GI50: > 100 µM (inactive)
SNB-75
  GI50: > 100 µM (inactive)
IGROV-1
  GI50: > 100 µM (inactive)
DMS-273
  GI50: > 100 µM (inactive)
M19-MEL
  GI50: > 100 µM (inactive)
UACC-62
  GI50: > 100 µM (inactive)
NCI-H226
  GI50: > 100 µM (inactive)
OVCAR-8
  GI50: > 100 µM (inactive)
CAKI-1
  GI50: > 100 µM (inactive)
KM-20L2
  GI50: > 100 µM (inactive)
XF498
  GI50: > 100 µM (inactive)
UACC-257
  GI50: > 100 µM (inactive)
MOLT-4
  GI50: > 100 µM (inactive)
ACHN
  GI50: > 100 µM (inactive)
NCI-H460
  GI50: > 100 µM (inactive)
OVCAR-4
  GI50: > 100 µM (inactive)
UO-31
  GI50: > 100 µM (inactive)
LOX IMVI
  GI50: > 100 µM (inactive)
SNB-19
  GI50: > 100 µM (inactive)
DLD-1
  GI50: > 100 µM (inactive)
SF-539
  GI50: > 100 µM (inactive)
RXF 631
  GI50: > 100 µM (inactive)
HCC 2998
  GI50: > 100 µM (inactive)
NCI-H522
  GI50: > 100 µM (inactive)
SK-MEL-2
  GI50: > 100 µM (inactive)
SR
  GI50: > 100 µM (inactive)
HT-29
  GI50: > 100 µM (inactive)
SW-620
  GI50: > 100 µM (inactive)
KM12
  GI50: > 100 µM (inactive)
RPMI-8226
  GI50: > 100 µM (inactive)
786-0
  GI50: > 100 µM (inactive)
DMS-114
  GI50: > 100 µM (inactive)
HCT-116
  GI50: > 100 µM (inactive)
HCT-15
  GI50: > 100 µM
SK-MEL-5
  GI50: > 100 µM (inactive)
EKVX
  GI50: > 100 µM (inactive)
Malme-3M
  GI50: > 100 µM (inactive)
SN12C
  GI50: > 100 µM (inactive)
U-251
  GI50: > 100 µM (inactive)
OVCAR-3
  GI50: > 100 µM (inactive)
SF-295
  GI50: > 100 µM (inactive)
A498
  GI50: > 100 µM (inactive)
HOP-62
  GI50: > 100 µM (inactive)
LXFL 529
  GI50: > 100 µM (inactive)
K562
  GI50: > 100 µM (inactive)

## O=C(c1ccccc1)C1S(=O)(=O)OCCOS1(=O)=O
SF-268
  GI50: > 100 µM (inactive)
A549
  GI50: > 100 µM (inactive)
SK-MEL-28
  GI50: > 100 µM (inactive)
SK-OV-3
  GI50: > 100 µM (inactive)
M14
  GI50: > 100 µM (inactive)
SNB-75
  GI50: > 100 µM (inactive)
IGROV-1
  GI50: > 100 µM (inactive)
DMS-273
  GI50: > 100 µM (inactive)
M19-MEL
  GI50: > 100 µM (inactive)
UACC-62
  GI50: > 100 µM (inactive)
CCRF-CEM
  GI50: > 100 µM (inactive)
OVCAR-8
  GI50: > 100 µM (inactive)
CAKI-1
  GI50: > 100 µM (inactive)
XF498
  GI50: > 100 µM (inactive)
UACC-257
  GI50: > 100 µM (inactive)
MOLT-4
  GI50: > 10 µM (inactive)
NCI-H23
  GI50: > 100 µM (inactive)
OVCAR-4
  GI50: > 100 µM (inactive)
UO-31
  GI50: > 100 µM (inactive)
LOX IMVI
  GI50: > 100 µM (inactive)
SNB-19
  GI50: > 100 µM (inactive)
DLD-1
  GI50: > 100 µM (inactive)
SF-539
  GI50: > 100 µM (inactive)
RXF 631
  GI50: > 100 µM (inactive)
HCC 2998
  GI50: > 100 µM (inactive)
COLO 205
  GI50: > 100 µM (inactive)
NCI-H522
  GI50: > 100 µM (inactive)
SK-MEL-2
  GI50: > 100 µM (inactive)
SR
  GI50: > 100 µM (inactive)
HT-29
  GI50: > 100 µM (inactive)
SW-620
  GI50: > 100 µM (inactive)
TK-10
  GI50: > 100 µM (inactive)
KM12
  GI50: > 100 µM (inactive)
RPMI-8226
  GI50: > 100 µM (inactive)
HOP-92
  GI50: > 100 µM (inactive)
786-0
  GI50: > 100 µM (inactive)
DMS-114
  GI50: > 100 µM (inactive)
HCT-116
  GI50: > 100 µM (inactive)
SK-MEL-5
  GI50: > 100 µM (inactive)
EKVX
  GI50: > 100 µM (inactive)
Malme-3M
  GI50: > 100 µM (inactive)
HL-60
  GI50: > 100 µM (inactive)
SN12C
  GI50: > 100 µM (inactive)
OVCAR-3
  GI50: > 100 µM (inactive)
SF-295
  GI50: > 100 µM (inactive)
HOP-62
  GI50: > 100 µM (inactive)
SNB-78
  GI50: > 100 µM (inactive)
LXFL 529
  GI50: > 100 µM (inactive)
K562
  GI50: > 100 µM (inactive)

## O=C1c2ccccc2C(=O)c2c(O)c(NCCCNCCO)cc(O)c21
SF-268
  GI50: 7.91 µM (inactive)
A549
  GI50: 10.3 µM (inactive)
OVCAR-5
  GI50: 11.3 µM (inactive)
SK-MEL-28
  GI50: 16.2 µM (inactive)
SK-OV-3
  GI50: 12.4 µM (inactive)
M14
  GI50: 16.7 µM (inactive)
SNB-75
  GI50: 12.9 µM (inactive)
IGROV-1
  GI50: 12.4 µM (inactive)
DMS-273
  GI50: 4.97 µM (inactive)
M19-MEL
  GI50: 13.7 µM (inactive)
UACC-62
  GI50: 18.7 µM (inactive)
HOP-18
  GI50: 2.41 µM (inactive)
CCRF-CEM
  GI50: 2.47 µM (inactive)
NCI-H226
  GI50: 5.61 µM (inactive)
OVCAR-8
  GI50: 5.79 µM (inactive)
CAKI-1
  GI50: 10.2 µM (inactive)
XF498
  GI50: 16 µM (inactive)
MOLT-4
  GI50: 2.74 µM (inactive)
ACHN
  GI50: 3.82 µM (inactive)
NCI-H460
  GI50: 3.33 µM (inactive)
NCI-H23
  GI50: 9.18 µM (inactive)
OVCAR-4
  GI50: 10.2 µM (inactive)
UO-31
  GI50: 5.87 µM (inactive)
DLD-1
  GI50: 6.49 µM (inactive)
SF-539
  GI50: 9.38 µM (inactive)
RXF 631
  GI50: 6.34 µM (inactive)
HCC 2998
  GI50: 3.06 µM (inactive)
COLO 205
  GI50: 5.92 µM (inactive)
SK-MEL-2
  GI50: 18 µM (inactive)
HT-29
  GI50: 4.16 µM (inactive)
SW-620
  GI50: 4.33 µM (inactive)
TK-10
  GI50: 8.83 µM (inactive)
KM12
  GI50: 0.729 µM (active)
RPMI-8226
  GI50: 7.59 µM (inactive)
HOP-92
  GI50: 12.4 µM (inactive)
786-0
  GI50: 10.5 µM (inactive)
DMS-114
  GI50: 11 µM (inactive)
HCT-15
  GI50: 5.83 µM
EKVX
  GI50: 13.7 µM (inactive)
Malme-3M
  GI50: 17.1 µM (inactive)
HL-60
  GI50: 4.18 µM (inactive)
SN12C
  GI50: 10.5 µM (inactive)
U-251
  GI50: 6.15 µM (inactive)
OVCAR-3
  GI50: 12.1 µM (inactive)
SF-295
  GI50: 10.7 µM (inactive)
A498
  GI50: 14.8 µM (inactive)
HOP-62
  GI50: 2.44 µM (inactive)
SNB-78
  GI50: 11.2 µM (inactive)
LXFL 529
  GI50: 11.1 µM (inactive)
K562
  GI50: 1.66 µM (inactive)
